Columns and labels:
Type in all cases: in vivo
[1] = system: sicklepod (Cassia obtusifolia, CAO); assay: Pre-emerge test, sicklepod; conditions: 250 g ai/ha, 14 days after application, rating scale 0-100 (0 no damage, 100 complete death)
Method in brief: (§1)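 Seeds planted 1 day pre-application in sandy loam soil mix; acetone solutions sprayed at 8 to 1000 g ai/ha (187 l/ha, flat fan nozzle, track sprayer). 14 d later, visual damage scored on a 0–100 scale.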

[2] = system: redroot pigweed (Amaranthus retroflexus, AMR); assay: Post-emerge test, redroot pigweed; conditions: 250 g ai/ha, 14 days after application, rating scale 0-100 (0 no damage, 100 complete death)
Method in brief: (§2)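 Greenhouse post-emergence spray onto plants at about the 2-3 leaf stage in sandy loam pots, compound in acetone at 187 l/ha plus 0.25% v/v non-ionic surfactant, 8-1000 g ai/ha by track sprayer. Phytotoxicity scored 14 days after application, 0 (no damage) to 100 (complete death).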

[3] = system: common ragweed (Ambrosia artemisiifolia L., AML); assay: Post-emerge test, common ragweed; conditions: 250 g ai/ha, 14 days after application, rating scale 0-100 (0 no damage, 100 complete death)
Method in brief: as §2

[4] = system: common ragweed (Ambrosia artemisiifolia L., AML); assay: Pre-emerge test, common ragweed; conditions: 250 g ai/ha, 14 days after application, rating scale 0-100 (0 no damage, 100 complete death)
Method in brief: as §1

[5] = system: cocklebur (Xanthium strumariunt, XAS); assay: Post-emerge test, cocklebur; conditions: 250 g ai/ha, 14 days after application, rating scale 0-100 (0 no damage, 100 complete death)
Method in brief: as §2

[6] = system: barnyardgrass (Echinachloa crus-galli, ECC); assay: Pre-emerge test, barnyardgrass; conditions: 250 g ai/ha, 14 days after application, rating scale 0-100 (0 no damage, 100 complete death)
Method in brief: as §1

[7] = system: johnsongrass (Sorghum halepense, SOH); assay: Pre-emerge test, johnsongrass; conditions: 250 g ai/ha, 14 days after application, rating scale 0-100 (0 no damage, 100 complete death)
Method in brief: as §1

[8] = system: large crabgrass (Digitaria sanguinalis, DIS); assay: Pre-emerge test, large crabgrass; conditions: 250 g ai/ha, 14 days after application, rating scale 0-100 (0 no damage, 100 complete death)
Method in brief: as §1

[9] = system: cocklebur (Xanthium strumariunt, XAS); assay: Pre-emerge test, cocklebur; conditions: 250 g ai/ha, 14 days after application, rating scale 0-100 (0 no damage, 100 complete death)
Method in brief: as §1

[10] = system: ivyleaf morningglory (Ipomoea hederacea, IPH); assay: Pre-emerge test, ivyleaf morningglory; conditions: 250 g ai/ha, 14 days after application, rating scale 0-100 (0 no damage, 100 complete death)
Method in brief: as §1

[11] = system: velvetleaf (Abutilon theophrasti, ABT); assay: Post-emerge test, velvetleaf; conditions: 250 g ai/ha, 14 days after application, rating scale 0-100 (0 no damage, 100 complete death)
Method in brief: as §2

[12] = system: upland rice (Oryza sp., var.Tebonnet, RICE); assay: Pre-emerge test, crop damage upland rice; conditions: pre-emerge, 250 g ai/ha, 14 days after application, rating scale 0-100 (0 no damage, 100 complete death)
Method in brief: (§3)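 Sandy loam soil mix, 10 cm pots, sowing 1 d before treatment; spray volume 187 l/ha, rates 8–1000 g ai/ha in acetone; 0–100 visual rating at 14 d.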

[13] = system: field corn (Zea mays L., var. Dekalb 535, CORN); assay: Post-emerge test, crop damage field corn; conditions: post-emerge, 250 g ai/ha, 14 days after application, rating scale 0-100 (0 no damage, 100 complete death)
Method in brief: as §2

[14] = system: soybean (Glycine max L., var. Pella 86, SOY); assay: Post-emerge test, crop damage soybean; conditions: post-emerge, 250 g ai/ha, 14 days after application, rating scale 0-100 (0 no damage, 100 complete death)
Method in brief: as §2

[15] = system: soybean (Glycine max L., var. Pella 86, SOY); assay: Pre-emerge test, crop damage soybean; conditions: pre-emerge, 250 g ai/ha, 14 days after application, rating scale 0-100 (0 no damage, 100 complete death)
Method in brief: as §3

[16] = system: barnyardgrass (Echinachloa crus-galli, ECC); assay: Post-emerge test, barnyardgrass; conditions: 250 g ai/ha, 14 days after application, rating scale 0-100 (0 no damage, 100 complete death)
Method in brief: as §2

[17] = system: sicklepod (Cassia obtusifolia, CAO); assay: Post-emerge test, sicklepod; conditions: 250 g ai/ha, 14 days after application, rating scale 0-100 (0 no damage, 100 complete death)
Method in brief: as §2

[18] = system: lambsquarters (Chenopodium album, CHA); assay: Pre-emerge test, lambsquarters; conditions: 250 g ai/ha, 14 days after application, rating scale 0-100 (0 no damage, 100 complete death)
Method in brief: as §1

[19] = system: velvetleaf (Abutilon theophrasti, ABT); assay: Pre-emerge test, velvetleaf; conditions: 250 g ai/ha, 14 days after application, rating scale 0-100 (0 no damage, 100 complete death)
Method in brief: as §1

[20] = system: wheat (Triticum aestivum); assay: Post-emerge test, crop damage wheat; conditions: post-emerge, 250 g ai/ha, 14 days after application, rating scale 0-100 (0 no damage, 100 complete death)
Method in brief: as §2

[21] = system: green foxtail (Setaria viridis, SEV); assay: Pre-emerge test, green foxtail; conditions: 250 g ai/ha, 14 days after application, rating scale 0-100 (0 no damage, 100 complete death)
Method in brief: as §1

[22] = system: redroot pigweed (Amaranthus retroflexus, AMR); assay: Pre-emerge test, redroot pigweed; conditions: 250 g ai/ha, 14 days after application, rating scale 0-100 (0 no damage, 100 complete death)
Method in brief: as §1

[23] = system: field corn (Zea mays L., var. Dekalb 535, CORN); assay: Pre-emerge test, crop damage field corn; conditions: pre-emerge, 250 g ai/ha, 14 days after application, rating scale 0-100 (0 no damage, 100 complete death)
Method in brief: as §3

[24] = system: upland rice (Oryza sp., var.Tebonnet, RICE); assay: Post-emerge test, crop damage upland rice; conditions: post-emerge, 250 g ai/ha, 14 days after application, rating scale 0-100 (0 no damage, 100 complete death)
Method in brief: as §2

[25] = system: johnsongrass (Sorghum halepense, SOH); assay: Post-emerge test, johnsongrass; conditions: 250 g ai/ha, 14 days after application, rating scale 0-100 (0 no damage, 100 complete death)
Method in brief: as §2

[26] = system: wheat (Triticum aestivum); assay: Pre-emerge test, crop damage wheat; conditions: pre-emerge, 250 g ai/ha, 14 days after application, rating scale 0-100 (0 no damage, 100 complete death)
Method in brief: as §3

[27] = system: lambsquarters (Chenopodium album, CHA); assay: Post-emerge test, lambsquarters; conditions: 250 g ai/ha, 14 days after application, rating scale 0-100 (0 no damage, 100 complete death)
Method in brief: as §2

[28] = system: green foxtail (Setaria viridis, SEV); assay: Post-emerge test, green foxtail; conditions: 250 g ai/ha, 14 days after application, rating scale 0-100 (0 no damage, 100 complete death)
Method in brief: as §2

[29] = system: large crabgrass (Digitaria sanguinalis, DIS); assay: Post-emerge test, large crabgrass; conditions: 250 g ai/ha, 14 days after application, rating scale 0-100 (0 no damage, 100 complete death)
Method in brief: as §2

[30] = system: ivyleaf morningglory (Ipomoea hederacea, IPH); assay: Post-emerge test, ivyleaf morningglory; conditions: 250 g ai/ha, 14 days after application, rating scale 0-100 (0 no damage, 100 complete death)
Method in brief: as §2

SMILES | Pre-emerge Herbicidal Activity CAO (phytotoxicity rating) [1] | Post-emerge Herbicidal Activity AMR (phytotoxicity rating) [2] | Post-emerge Herbicidal Activity AML (phytotoxicity rating) [3] | Pre-emerge Herbicidal Activity AML (phytotoxicity rating) [4] | Post-emerge Herbicidal Activity XAS (phytotoxicity rating) [5] | Pre-emerge Herbicidal Activity ECC (phytotoxicity rating) [6] | Pre-emerge Herbicidal Activity SOH (phytotoxicity rating) [7] | Pre-emerge Herbicidal Activity DIS (phytotoxicity rating) [8] | Pre-emerge Herbicidal Activity XAS (phytotoxicity rating) [9] | Pre-emerge Herbicidal Activity IPH (phytotoxicity rating) [10] | Post-emerge Herbicidal Activity ABT (phytotoxicity rating) [11] | Pre-emerge crop damage RICE (phytotoxicity rating) [12] | Post-emerge crop damage CORN (phytotoxicity rating) [13] | Post-emerge crop damage SOY (phytotoxicity rating) [14] | Pre-emerge crop damage SOY (phytotoxicity rating) [15] | Post-emerge Herbicidal Activity ECC (phytotoxicity rating) [16] | Post-emerge Herbicidal Activity CAO (phytotoxicity rating) [17] | Pre-emerge Herbicidal Activity CHA (phytotoxicity rating) [18] | Pre-emerge Herbicidal Activity ABT (phytotoxicity rating) [19] | Post-emerge crop damage WHEAT (phytotoxicity rating) [20] | further results
CCC1C(=O)Nc2c(-c3nn(C)c(OC(F)F)c3Cl)c(F)cc3c2N1C(=O)CO3 (stereo not drawn) [1-28] | 100 | 100 | 100 | 98 | 100 | 100 | 100 | 100 | 100 | 100 | 100 | 75 | 25 | 100 | 40 | 99 | 100 | 100 | 100 | 50 | Pre-emerge Herbicidal Activity SEV (phytotoxicity rating) [21]: 100; Pre-emerge Herbicidal Activity AMR (phytotoxicity rating) [22]: 100; Pre-emerge crop damage CORN (phytotoxicity rating) [23]: 85; Post-emerge crop damage RICE (phytotoxicity rating) [24]: 100; Post-emerge Herbicidal Activity SOH (phytotoxicity rating) [25]: 80; Pre-emerge crop damage WHEAT (phytotoxicity rating) [26]: 65; Post-emerge Herbicidal Activity CHA (phytotoxicity rating) [27]: 100; Post-emerge Herbicidal Activity SEV (phytotoxicity rating) [28]: 100; Post-emerge Herbicidal Activity DIS (phytotoxicity rating) [29]: 15; Post-emerge Herbicidal Activity IPH (phytotoxicity rating) [30]: 100
Cn1nc(-c2c(F)cc3c4c2NC(=O)C(c2ccccc2)N4C(=O)CO3)c(Cl)c1OC(F)F (stereo not drawn) [1-33] | 65 | 99 | 70 | 100 | 70 | 55 | 70 | 100 | 75 | 70 | 100 | 10 | 25 | 60 | 15 | 65 | 60 | 100 | 100 | 65 | Pre-emerge Herbicidal Activity SEV (phytotoxicity rating) [21]: 99; Pre-emerge Herbicidal Activity AMR (phytotoxicity rating) [22]: 100; Pre-emerge crop damage CORN (phytotoxicity rating) [23]: 0; Post-emerge crop damage RICE (phytotoxicity rating) [24]: 95; Post-emerge Herbicidal Activity SOH (phytotoxicity rating) [25]: 65; Pre-emerge crop damage WHEAT (phytotoxicity rating) [26]: 10; Post-emerge Herbicidal Activity CHA (phytotoxicity rating) [27]: 99; Post-emerge Herbicidal Activity SEV (phytotoxicity rating) [28]: 95; Post-emerge Herbicidal Activity DIS (phytotoxicity rating) [29]: 25; Post-emerge Herbicidal Activity IPH (phytotoxicity rating) [30]: 98

Source: patent US6770596B1, “Fused tricyclic compounds, process for their preparation, and herbicidal compositions containing them” (Ishihara Sangyo Kaisha Ltd., priority 2002, dated 2004)
